What was measured:
[1] = Acceptable daily intake of NTTP (EMA/FDA); details: 37 ng corresponds to 0.088 ppm
Protocol: Recently, the European Medicines Agency (EMA) and the U.S. Food and Drug Administration (FDA) have announced that 7-Nitroso-3-(trifluoromethyl)-5,6,7,8-tetrahydro[1,2,4]triazolo-[4,3-a]pyrazine (NTTP), which is classified into nitrosamines, has been detected in a sitagliptin preparation. Nitrosamines are known to be potentially carcinogenic, and an acceptable intake of NTTP is set at 37 ng daily. NTTP is produced by the reaction of 3-(trifluoromethyl) 5,6,7,8-tetrahydro[1,2,4]triazolo-[4,3-a]pyrazine, which is produced by hydrolysis of sitagliptin, with nitrogen oxides such as nitrous acid. Nitrogen oxides are contained in small amounts in additives, as well as in the water and air used in the preparation process. Although the production pathway of NTTP is expected as described above, its reactivity is unknown. Therefore, a specific method for reducing the amount of NTTP in a preparation was completely unknown.
Generally, the criterion for reporting the amount of related substances in a preparation is 1,000 ppm, but it is a very difficult task to suppress the production of NTTP in a sitagliptin preparation because a daily acceptable intake of NTTP of 37 ng corresponds to 0.088 ppm.

[2] = set limit for nitrosamine in sitagliptin preparation; cited from earlier work

O=NN1CCn2c(nnc2C(F)(F)F)C1 [NTTP, 7-Nitroso-3-(trifluoromethyl)-5,6,7,8-tetrahydro[1,2,4]triazolo-[4,3-a]pyrazine]
daily acceptable intake of NTTP expressed as content in the preparation [1]: 0.088 ppm | acceptable intake of NTTP [2]: 37 ng daily

— patent publication US20250144091A1, “SITAGLIPTIN PREPARATION AND METHOD OF STORAGE THEREOF” (SAWAI PHARMACEUTICAL CO., LTD., priority 2023, published 2025)
